Laboratory results from patent US20180171411A1, “GFRalpha1 AS A BIOMARKER FOR CISPLATIN-INDUCED CHEMORESISTANCE AND METASTASIS” (THE BOARD OF REGENTS OF THE UNIVERSITY OF TEXAS SYSTEM, priority 2015, published 2018).
Peptide text beside a SMILES is read from it. * marks the point of attachment. Cbz = O=C(OCc1ccccc1)*; CH2F = FC*

How the values were obtained:
Assay type in all cases: cell-based, human
[1] = test system: LC3-II in GFRα1-overexpressing MG-63 cells; assay: Immunoblot of LC3-II in GFRα1-overexpressing cells; settings: 3-MA (10 μM) or Baf (100 nM)
Experimental: FIG. 3. GFRα1-induced autophagy enhances the chemoresistance of osteosarcoma cells induced by cisplatin. (a) Control and GFRα1-deficient MG-63 cells were transiently transfected with a mRFP-GFP tandem fluorescent-tagged LC3 (mRFP-GFP-LC3) vector and then treated with cisplatin (20μM) for 24 hr. Left, representative images of RFP-LC3 and GFP-LC3 puncta. Scale bar, 20 μm. Right, quantitative analysis of the number of yellow puncta and the number of RFP-LC3 puncta in the combined images. The values are represented as a mean±s.d.m. (n=3). ** denotes p<0.05 by t-test. (b) Control and GFRα1-deficient MG-63 cells were treated with cisplatin (20 μM) for 24 hr and then stained with acridine orange. […] Bottom, quantitative analysis of the number of AVOs. […] (c) Control and GFRα1-deficient MG-63 cells were treated with cisplatin (20 μM) for 24 hr and then analyzed by TEM. Top, representative images of autophagic vacuoles (yellow arrows) detected after cisplatin treatment in control MG-63 cells. […] Bottom, quantitative analysis of the number of autophagic vacuoles. […] (e) Quantitative analysis of the number of yellow puncta and the number of RFP-LC3 puncta in control and GFRα1-overexpressing MG-63 cells. […] Bottom, quantitative analysis of the number of AVOs. […] (h) Control and GFRα1-overexpressing MG-63 cells were treated with cisplatin (20 μM) for 24 hr and then analyzed by TEM. […]

[2] = test system: GFRα1-overexpressing MG-63 cells; assay: WST-1 cell viability of GFRα1-overexpressing osteosarcoma cells; settings: with DMSO, 3-MA or Baf, then cisplatin 20 μM 24 hr
Experimental: FIG. 3. GFRα1-induced autophagy enhances the chemoresistance of osteosarcoma cells induced by cisplatin. (a) Control and GFRα1-deficient MG-63 cells were transiently transfected with a mRFP-GFP tandem fluorescent-tagged LC3 (mRFP-GFP-LC3) vector and then treated with cisplatin (20μM) for 24 hr. Left, representative images of RFP-LC3 and GFP-LC3 puncta. Scale bar, 20 μm. Right, quantitative analysis of the number of yellow puncta and the number of RFP-LC3 puncta in the combined images. The values are represented as a mean±s.d.m. (n=3). ** denotes p<0.05 by t-test. (b) Control and GFRα1-deficient MG-63 cells were treated with cisplatin (20 μM) for 24 hr and then stained with acridine orange. Top, representative images of cells stained with acridine orange. Scale bar, 20 μm. Bottom, quantitative analysis of the number of AVOs. The values are represented as a mean±s.d.m. (n=3). ** denotes p<0.05 by t-test. (c) Control and GFRα1-deficient MG-63 cells were treated with cisplatin (20 μM) for 24 hr and then analyzed by TEM. Top, representative images of autophagic vacuoles (yellow arrows) detected after cisplatin treatment in control MG-63 cells. Scale bar, 100 nm. Bottom, quantitative analysis of the number of autophagic vacuoles. The values are represented as a mean±s.d.m. (n=3). ** denotes p<0.05 by t-test. (d) Immunoblot analysis of control and GFRα1-overexpressing osteosarcoma cell lysates with antibodies specific for GFRα1, LC3 and β-actin. […] (e) Quantitative analysis of the number of yellow puncta and the number of RFP-LC3 puncta in control and GFRα1-overexpressing MG-63 cells. […] Bottom, quantitative analysis of the number of AVOs. […] (h) Control and GFRα1-overexpressing MG-63 cells were treated with cisplatin (20 μM) for 24 hr and then analyzed by TEM. Top, representative images of autophagic vacuoles detected after cisplatin treatment in control and GFRα1-overexpressing MG-63 cells. […] Bottom, quantitative analysis of the number of autophagic vacuoles. […] Cell viability was measured using the WST-1 assay. […] Cell viability was measured using the WST-1 assay. […]

[3] = test system: GFRα1-overexpressing MG-63 clone #4; assay: Colony-forming assay in the presence of cisplatin; settings: cisplatin 20 μM 10 days; 3-MA (10 μM), Baf (100 nM), CQ (30 μg/ml)
Text: FIG. 3. […] Scale bar, 20 μm. […] Scale bar, 20 μm. […] Scale bar, 20 μm.

[4] = test system: Caspase-3 activity in control and GFRα1-deficient MG-63 cells; assay: Caspase-3 activity (Colorimetric CaspACE assay); settings: cisplatin 20 μM 24 hr, ZVAD-FMK 50 μM
Text: FIG. 2. GFRα1 suppresses the chemosensitivity of osteosarcoma cells induced by cisplatin. (a) Generation of GFRα1-deficient osteosarcoma cell lines with GFRα1 shRNA. Both MG-63 and U-2 OS cells were transfected with control or GFRα1 shRNA. Immunoblot analysis of control and GFRα1-deficient stable osteosarcoma cell lysates with antibodies specific for GFRα1 and β-actin. (b) Cell viability of GFRα1-deficient osteosarcoma cells after cisplatin treatment. Control or GFRα1-deficient cells were cultured and treated with different concentrations of cisplatin for 24 hr. Cell viability was measured using the WST-1 assay. The values are represented as a mean±s.d.m. (n=3). ** denotes p<0.05 by t-test. (c) Apoptotic response of GFRα1-deficient osteosarcoma cells after cisplatin treatment. […] Apoptotic cells by FITC-Annexin V staining (top) and viable cells by PI staining (bottom) were analyzed through flow cytometry. […] Cell viability was measured using the WST-1 assay. […] Apoptotic cells by FITC-Annexin V staining (top) and viable cells by PI staining (bottom) were analyzed through flow cytometry. […]
Apoptosis Assays. […] Apoptotic cells were analyzed using a FACSCalibur flow cytometer with CellQuest software (Becton Dickinson, Franklin Lakes, N.J.). […] Caspase 3 activity was analyzed by the Colorimetric CaspACE™ Assay System (Promega, Madison, Wis.) according the manufacturer's instructions. […]

SMILES | level of LC3-II expression [1] | increase of cell proliferation in GFRα1 overexpressing cells [2] | number of colonies [3] | Caspase-3 activity increase in cisplatin-treated GFRα1-deficient MG-63 cells [4]
CO/C1=C\C(C)=C\[C@@H](C)[C@@H](O)[C@@H](C)C/C(C)=C/C=C/[C@H](OC)[C@@H]([C@@H](C)[C@@H](O)[C@H](C)[C@@]2(O)C[C@@H](O)[C@H](C)[C@@H](C(C)C)O2)OC1=O [Baf, bafilomycin A1] | increased | not | effectively reduced | –
COC(=O)C[C@H](NC(=O)[C@H](C)NC(=O)[C@@H](NC(=O)OCc1ccccc1)C(C)C)C(=O)CF [ZVAD-FMK] (Cbz-Val-Ala-Asp(OMe)-CH2F) | – | – | – | reversed this effect
